Experimental data as given in patent US20120244567A1, “HUMAN EMBRYONIC STEM CELLS FOR HIGH THROUGHOUT DRUG SCREENING” (BUCK INSTITUTE FOR RESEARCH ON AGING, priority 2009, published 2012).
Counter-ions that a name gives are not always drawn.

Tested on: dopaminergic neurons
Conditions: enriched in treated DA neurons
Description: RNAs isolated from NSCs and neurons with and without drug treatments were hybridized to Illumina HumanRef-8 BeadChip (Illumina, Inc., San Diego, Calif., performed by Microarray core facility at the Burnham Institute for Medical Research). The Illumina array data were normalized by the quantile method, and then transformed log 2 ratio values for a zero mean for expression values of each gene across all samples. The statistical and bioinformatics analyses were conducted by using R and the bioconductor package (www.bioconductor.org). The gene set enrichment analysis was conducted using the GSEA software (www.broad.mit.edu/gsea).
The comparative results are then measured by a non-parametric, running sum statistic termed the enrichment score. The enrichment score significance is assessed by 1,000 permutation tests to compute the enrichment p-value.

In the case of CCCCc1oc2ccccc2c1C(=O)c1cc(I)c(OCCN(CC)CC)c(I)c1 [Amiodarone Hydrochloride], the “Nes: Secondary Active Transmembrane Transporter Activity” value (Nom P-Val 0) is reported as 1.633, the “Nes: Protein Serine Threonine Kinase Activity” value (Nom P-Val 0.027778) is reported as 1.386 and the “Nes: Sequence Specific Dna Binding” value (Nom P-Val 0.056338) is reported as 1.388. For the same molecule, the “Nes: Phosphotransferase Activity Alcohol Group As Acceptor” value (Nom P-Val 0.059524) was 1.237, the “Nes: Anion Transmembrane Transporter Activity” value (Nom P-Val 0.065574) was 1.432 and the “Nes: Lipase Activity” value (Nom P-Val 0.067797) was 1.422. For the same molecule, the “Nes: Active Transmembrane Transporter Activity” value (Nom P-Val 0.082192) was 1.376, the “Nes: Receptor Signaling Protein Serine Threonine Kinase Activity” value (Nom P-Val 0.157895) was 1.268 and the “Nes: Protein Kinase Activity” value (Nom P-Val 0.176471) was 1.196. The “Nes: Structural Constituent Of Muscle” value (Nom P-Val 0.207547) was 1.208, the “Nes: Structure Specific Dna Binding” value (Nom P-Val 0.230769) was 1.183 and the “Nes: Receptor Signaling Protein Activity” value (Nom P-Val 0.236842) was 1.149. For the same molecule, the “Nes: Ligase Activity Forming Carbon Nitrogen Bonds” value (Nom P-Val 0.242857) was 1.127, the “Nes: Small Conjugating Protein Ligase Activity” value (Nom P-Val 0.243243) was 1.144 and the “Nes: Ligase Activity” value (Nom P-Val 0.25) was 1.14. For the same molecule, the “Nes: Phosphoric Diester Hydrolase Activity” value (Nom P-Val 0.25) was 1.183, the “Nes: Rhodopsin Like Receptor Activity” value (Nom P-Val 0.25) was 1.144 and the “Nes: Small Protein Conjugating Enzyme Activity” value (Nom P-Val 0.257576) was 1.146. The “Nes: Deoxyribonuclease Activity” value (Nom P-Val 0.258621) was 1.315, the “Nes: Acid Amino Acid Ligase Activity” value (Nom P-Val 0.28) was 1.18 and the “Nes: Ubiquitin Protein Ligase Activity” value (Nom P-Val 0.301587) was 1.139. The “Nes: Atp Binding” value (Nom P-Val 0.318841) was 1.077, the “Nes: Atpase Activity Coupled To Movement Of Substances” value (Nom P-Val 0.355932) was 1.065 and the “Nes: Dna Binding” value (Nom P-Val 0.359551) was 1.034. For the same molecule, the “Nes: Nuclease Activity” value (Nom P-Val 0.360656) was 1.072, the “Nes: Hydrogen Ion Transmembrane Transporter Activity” value (Nom P-Val 0.366667) was 1.078 and the “Nes: Udp Glycosyltransferase Activity” value (Nom P-Val 0.366667) was 1.093. The “Nes: Kinase Activity” value (Nom P-Val 0.367816) was 1.036, the “Nes: Rna Polymerase Ii Transcription Factor Activity” value (Nom P-Val 0.371429) was 1.042 and the “Nes: Hydrolase Activity Acting On Acid Anhydrides Catalyzing Transmembrane Movement Of Substances” value (Nom P-Val 0.376812) was 1.094. The “Nes: Double Stranded Dna Binding” value (Nom P-Val 0.37931) was 1.072, the “Nes: Enzyme Activator Activity” value (Nom P-Val 0.382353) was 1.049 and the “Nes: Transmembrane Receptor Activity” value (Nom P-Val 0.382716) was 1.055. For the same molecule, the “Nes: Inorganic Cation Transmembrane Transporter Activity” value (Nom P-Val 0.40625) was 1.065, the “Nes: Enzyme Inhibitor Activity” value (Nom P-Val 0.409091) was 1.052 and the “Nes: Transferase Activity Transferring Groups Other Than Amino Acyl Groups” value (Nom P-Val 0.415385) was 1.05. The “Nes: Endonuclease Activity” value (Nom P-Val 0.419355) was 0.9859, the “Nes: Cytokine Activity” value (Nom P-Val 0.421875) was 1.063 and the “Nes: Oxidoreductase Activity Acting On Ch Oh Group Of Donors” value (Nom P-Val 0.424242) was 1.054. The “Nes: Oxidoreductase Activity Acting On The Ch Ch Group Of Donors” value (Nom P-Val 0.428571) was 1.028, the “Nes: Primary Active Transmembrane Transporter Activity” value (Nom P-Val 0.430556) was 1.056 and the “Nes: Gtpase Activity” value (Nom P-Val 0.442857) was 1.015. The “Nes: Transferase Activity Transferring Acyl Groups” value (Nom P-Val 0.451613) was 1.003, the “Nes: Damaged Dna Binding” value (Nom P-Val 0.45283) was 1.036 and the “Nes: Phosphatase Regulator Activity” value (Nom P-Val 0.467742) was 1.042. The “Nes: N Acetyltransferase Activity” value (Nom P-Val 0.473684) was 1.019, the “Nes: Structural Constituent Of Cytoskeleton” value (Nom P-Val 0.482759) was 0.9708 and the “Nes: Adenyl Ribonucleotide Binding” value (Nom P-Val 0.506667) was 0.9848. The “Nes: G Protein Coupled Receptor Activity” value (Nom P-Val 0.514706) was 0.9852, the “Nes: Protease Inhibitor Activity” value (Nom P-Val 0.516667) was 0.9864 and the “Nes: Transmembrane Receptor Protein Kinase Activity” value (Nom P-Val 0.516667) was 0.965. For the same molecule, the “Nes: N Acyltransferase Activity” value (Nom P-Val 0.519231) was 0.9889, the “Nes: Enzyme Regulator Activity” value (Nom P-Val 0.520548) was 0.9793 and the “Nes: Hormone Activity” value (Nom P-Val 0.523077) was 0.9749. The “Nes: General Rna Polymerase Ii Transcription Factor Activity” value (Nom P-Val 0.530612) was 0.9238, the “Nes: Pyrophosphatase Activity” value (Nom P-Val 0.54321) was 0.9536 and the “Nes: Purine Ribonucleotide Binding” value (Nom P-Val 0.5625) was 0.9577. The “Nes: Receptor Activity” value (Nom P-Val 0.5625) was 0.9738, the “Nes: Transferase Activity Transferring Sulfur Containing Groups” value (Nom P-Val 0.566667) was 0.9403 and the “Nes: Magnesium Ion Binding” value (Nom P-Val 0.567568) was 0.9401. For the same molecule, the “Nes: Integrin Binding” value (Nom P-Val 0.571429) was 0.9141, the “Nes: Substrate Specific Transporter Activity” value (Nom P-Val 0.573171) was 0.929 and the “Nes: Acetyltransferase Activity” value (Nom P-Val 0.6) was 0.9474. The “Nes: Single Stranded Dna Binding” value (Nom P-Val 0.605634) was 0.9533, the “Nes: Protein Homodimerization Activity” value (Nom P-Val 0.621212) was 0.8817 and the “Nes: Protein Domain Specific Binding” value (Nom P-Val 0.628571) was 0.9357. For the same molecule, the “Nes: Lipid Transporter Activity” value (Nom P-Val 0.62963) was 0.9194, the “Nes: Protein Dimerization Activity” value (Nom P-Val 0.636364) was 0.9248 and the “Nes: Ion Transmembrane Transporter Activity” value (Nom P-Val 0.64) was 0.9276. For the same molecule, the “Nes: Transferase Activity Transferring Hexosyl Groups” value (Nom P-Val 0.642857) was 0.9266, the “Nes: Nucleotide Binding” value (Nom P-Val 0.643836) was 0.9324 and the “Nes: Transferase Activity Transferring Phosphorus Containing Groups” value (Nom P-Val 0.64557) was 0.9499. For the same molecule, the “Nes: Zinc Ion Binding” value (Nom P-Val 0.647059) was 0.896, the “Nes: Translation Regulator Activity” value (Nom P-Val 0.661017) was 0.8764 and the “Nes: Translation Factor Activity Nucleic Acid Binding” value (Nom P-Val 0.681159) was 0.8454. The “Nes: Carbohydrate Binding” value (Nom P-Val 0.688525) was 0.8882, the “Nes: Adenyl Nucleotide Binding” value (Nom P-Val 0.694118) was 0.8847 and the “Nes: Microtubule Binding” value (Nom P-Val 0.696429) was 0.8123. The “Nes: Substrate Specific Transmembrane Transporter Activity” value (Nom P-Val 0.697368) was 0.9071, the “Nes: Transcription Cofactor Activity” value (Nom P-Val 0.7) was 0.8775 and the “Nes: Transcription Coactivator Activity” value (Nom P-Val 0.708333) was 0.8777. The “Nes: Sulfotransferase Activity” value (Nom P-Val 0.719298) was 0.88, the “Nes: Endopeptidase Activity” value (Nom P-Val 0.720588) was 0.8136 and the “Nes: Metallopeptidase Activity” value (Nom P-Val 0.733333) was 0.8731. The “Nes: Neurotransmitter Binding” value (Nom P-Val 0.754717) was 0.789, the “Nes: Neurotransmitter Receptor Activity” value (Nom P-Val 0.757576) was 0.7972 and the “Nes: Lyase Activity” value (Nom P-Val 0.758065) was 0.8646. For the same molecule, the “Nes: Transmembrane Transporter Activity” value (Nom P-Val 0.759494) was 0.8985, the “Nes: Transcription Repressor Activity” value (Nom P-Val 0.76) was 0.8555 and the “Nes: Nucleoside Triphosphatase Activity” value (Nom P-Val 0.761905) was 0.8734. The “Nes: Purine Nucleotide Binding” value (Nom P-Val 0.763158) was 0.861, the “Nes: Hydrolase Activity Acting On Acid Anhydrides” value (Nom P-Val 0.770115) was 0.8688 and the “Nes: Motor Activity” value (Nom P-Val 0.77193) was 0.7716. The “Nes: Calcium Channel Activity” value (Nom P-Val 0.781818) was 0.7534, the “Nes: Hydro Lyase Activity” value (Nom P-Val 0.792453) was 0.773 and the “Nes: Calcium Ion Binding” value (Nom P-Val 0.805556) was 0.7913. The “Nes: Hydrolase Activity Acting On Carbon Nitrogen But Not Peptide Bonds In Linear Amides” value (Nom P-Val 0.826923) was 0.6663, the “Nes: Transmembrane Receptor Protein Tyrosine Kinase Activity” value (Nom P-Val 0.828947) was 0.7856 and the “Nes: Ion Binding” value (Nom P-Val 0.833333) was 0.813. For the same molecule, the “Nes: Molecular Adaptor Activity” value (Nom P-Val 0.84507) was 0.7682, the “Nes: Gtp Binding” value (Nom P-Val 0.848485) was 0.769 and the “Nes: Guanyl Nucleotide Exchange Factor Activity” value (Nom P-Val 0.857143) was 0.7708. The “Nes: Carbon Oxygen Lyase Activity” value (Nom P-Val 0.86) was 0.7402.
